Data as given in ChEMBL document CHEMBL1201862, “PubChem BioAssay data set” (2004).
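Dose response: 5 concentrations. Exposure: 48 h. Format: 96-well plates. Endpoint: linear interpolation; highest concentration if not reached. GI50: concentration for 50% inhibition of growth.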 Activity calls are given as the source filed them. No stated cut-off is given here; in the data, active = GI50 up to about 1.1 µM and inactive = higher.

How the values were obtained:
Experiment in all cases: growth of human tumour cells (NCI), 48 h
U-251 = system: U-251
MOLT-4 = system: MOLT-4
CCRF-CEM = system: CCRF-CEM
OVCAR-4 = system: OVCAR-4
ACHN = system: ACHN
RXF 393 = system: RXF 393
CAKI-1 = system: CAKI-1
LOX IMVI = system: LOX IMVI
UACC-62 = system: UACC-62
TK-10 = system: TK-10
UO-31 = system: UO-31
HCC 2998 = system: HCC 2998
NCI-H460 = system: NCI-H460
MDA-MB-231 = system: MDA-MB-231
KM12 = system: KM12
NCI-H23 = system: NCI-H23
OVCAR-8 = system: OVCAR-8
OVCAR-3 = system: OVCAR-3
MCF7 = system: MCF7
BT-549 = system: BT-549

Compound	GI50 (U-251)	GI50 (MOLT-4)	GI50 (CCRF-CEM)	GI50 (OVCAR-4)	GI50 (ACHN)	GI50 (RXF 393)	GI50 (CAKI-1)	GI50 (LOX IMVI)	GI50 (UACC-62)	GI50 (TK-10)	GI50 (UO-31)	GI50 (HCC 2998)	GI50 (NCI-H460)	GI50 (MDA-MB-231)	GI50 (KM12)	GI50 (NCI-H23)	GI50 (OVCAR-8)	GI50 (OVCAR-3)	GI50 (MCF7)	GI50 (BT-549)
c1ccc(/N=C2\SC(=NNc3ccccc3)S\C2=N/c2ccccc2)cc1	38.1 µM (inactive)	> 100 µM (inactive)	> 100 µM (inactive)	> 100 µM (inactive)	> 100 µM (inactive)	7.66 µM (inactive)	> 100 µM (inactive)	13 µM (inactive)	4.13 µM (inactive)	> 100 µM (inactive)	> 100 µM (inactive)	37.8 µM (inactive)	15.5 µM (inactive)	> 100 µM (inactive)	6.12 µM (inactive)	> 100 µM (inactive)	> 100 µM (inactive)	–	–	–
CC(=O)OC12COC1CC(O)C1(C)C(=O)C(O)C3=C(C)C(O)CC(O)(C(OC(=O)c4ccccc4)C21)C3(C)C (stereo not drawn)	0.65 µM (active)	6.7 µM (inactive)	3.8 µM (inactive)	> 100 µM (inactive)	90.2 µM (inactive)	> 65.6 µM (inactive)	> 96.2 µM (inactive)	1.82 µM (inactive)	> 100 µM (inactive)	> 74 µM (inactive)	67.1 µM (inactive)	4.08 µM (inactive)	2.92 µM (inactive)	7.91 µM (inactive)	0.839 µM (active)	3.36 µM (inactive)	6.98 µM (inactive)	2.55 µM (inactive)	1.68 µM (inactive)	–
CN1C(=O)CC2CCCN2C1=O (stereo not drawn)	> 100 µM (inactive)	> 100 µM (inactive)	4.27 µM (inactive)	> 100 µM (inactive)	> 100 µM (inactive)	> 100 µM (inactive)	> 100 µM (inactive)	> 100 µM (inactive)	> 100 µM (inactive)	> 100 µM (inactive)	> 100 µM (inactive)	> 100 µM (inactive)	> 100 µM (inactive)	> 100 µM (inactive)	> 100 µM (inactive)	> 100 µM (inactive)	> 100 µM (inactive)	> 100 µM (inactive)	> 100 µM (inactive)	–
C=C(C)C1CC2(C)C(C)CC(OC(=O)/C(C)=C\C)CC2C(OC(=O)/C(C)=C\C)C1O (stereo not drawn)	75.5 µM (inactive)	25.1 µM (inactive)	20.8 µM (inactive)	> 100 µM (inactive)	32.9 µM (inactive)	–	80.7 µM (inactive)	38.6 µM (inactive)	84.5 µM (inactive)	> 100 µM (inactive)	39.8 µM (inactive)	> 100 µM (inactive)	45.1 µM (inactive)	> 100 µM (inactive)	38.6 µM (inactive)	61.9 µM (inactive)	> 100 µM (inactive)	–	41.2 µM (inactive)	62.1 µM (inactive)
COC(=O)/C(=N\Nc1nnc(C)n1N)C(C#N)c1ccccc1 (stereo not drawn)	> 77.4 µM (inactive)	> 100 µM (inactive)	> 100 µM (inactive)	> 40 µM (inactive)	27.8 µM (inactive)	> 100 µM (inactive)	> 100 µM (inactive)	> 64.9 µM (inactive)	> 100 µM (inactive)	> 100 µM (inactive)	> 91.4 µM (inactive)	> 100 µM (inactive)	> 100 µM (inactive)	> 100 µM (inactive)	> 100 µM (inactive)	24.1 µM (inactive)	> 73.3 µM (inactive)	> 100 µM (inactive)	–	> 100 µM (inactive)
CC(C)(C)OC/C=C(/CO)[C@@H]1C=C[C@H](O)C1	> 100 µM (inactive)	> 100 µM (inactive)	> 100 µM (inactive)	> 100 µM (inactive)	> 100 µM (inactive)	–	> 100 µM (inactive)	–	> 100 µM (inactive)	–	> 100 µM (inactive)	> 100 µM (inactive)	> 100 µM (inactive)	> 100 µM (inactive)	> 100 µM (inactive)	> 100 µM (inactive)	–	> 100 µM (inactive)	> 100 µM (inactive)	> 100 µM (inactive)
O=C1C2=C(C3=NCCc4c[nH]c1c43)c1c(cc(Br)c(O)c1Br)CCN2	11.9 µM (inactive)	2.81 µM (inactive)	2.56 µM (inactive)	11 µM (inactive)	–	14.8 µM (inactive)	20.3 µM (inactive)	6.67 µM (inactive)	3.47 µM (inactive)	–	18.2 µM (inactive)	5.55 µM (inactive)	9.27 µM (inactive)	–	13.4 µM (inactive)	13.4 µM (inactive)	8.53 µM (inactive)	2.73 µM (inactive)	7.69 µM (inactive)	–
CCCCCCCCCCOC1C(C(O)CNCCCN(C)C)OC2OC3(CCCCC3)OC21 (stereo not drawn)	1.84 µM (inactive)	1.77 µM (inactive)	1.71 µM (inactive)	2.04 µM (inactive)	2.81 µM (inactive)	1.93 µM (inactive)	1.75 µM (inactive)	1.09 µM (active)	2.79 µM (inactive)	3.21 µM (inactive)	2.37 µM (inactive)	2.57 µM (inactive)	1.97 µM (inactive)	1.8 µM (inactive)	1.51 µM (inactive)	1.48 µM (inactive)	2.39 µM (inactive)	1.96 µM (inactive)	2.07 µM (inactive)	–
CC1=NCCc2cc3[nH]c4ccccc4c3cc21	22.7 µM (inactive)	11.5 µM (inactive)	12.5 µM (inactive)	47.5 µM (inactive)	–	6.4 µM (inactive)	5.32 µM (inactive)	12.6 µM (inactive)	14.3 µM (inactive)	–	17.6 µM (inactive)	24 µM (inactive)	13.3 µM (inactive)	–	20.8 µM (inactive)	33 µM (inactive)	24.6 µM (inactive)	50.2 µM (inactive)	15.1 µM (inactive)	–
CC(C)CCNC(=O)c1ccc(CNC(=O)/C=C/c2ccc(-c3ccccc3[N+](=O)[O-])o2)cc1	56.8 µM (inactive)	> 100 µM (inactive)	12.2 µM (inactive)	14.4 µM (inactive)	53.2 µM (inactive)	> 100 µM (inactive)	46.3 µM (inactive)	> 100 µM (inactive)	16 µM (inactive)	–	76.7 µM (inactive)	> 100 µM (inactive)	> 100 µM (inactive)	> 100 µM (inactive)	32.5 µM (inactive)	82.8 µM (inactive)	26.6 µM (inactive)	94.8 µM (inactive)	68.5 µM (inactive)	–
CC1=CCC[C@]2(C)C1=CC(=O)O[C@H]2c1ccoc1	> 100 µM (inactive)	> 100 µM (inactive)	> 100 µM (inactive)	> 100 µM (inactive)	> 100 µM (inactive)	> 100 µM (inactive)	> 100 µM (inactive)	> 100 µM (inactive)	> 100 µM (inactive)	> 100 µM (inactive)	44.6 µM (inactive)	> 100 µM (inactive)	> 100 µM (inactive)	> 100 µM (inactive)	> 100 µM (inactive)	> 100 µM (inactive)	> 100 µM (inactive)	> 100 µM (inactive)	> 100 µM (inactive)	–
COc1cc(S(=O)(=O)Nc2ccc(-c3csc(N4C(=O)C(C)SC4c4ccccc4O)n3)cc2)ccc1Cl (stereo not drawn)	–	27.1 µM (inactive)	25.9 µM (inactive)	–	65.8 µM (inactive)	–	85.9 µM (inactive)	29.9 µM (inactive)	31 µM (inactive)	–	38.6 µM (inactive)	–	–	–	29.7 µM (inactive)	30.1 µM (inactive)	40.9 µM (inactive)	69.5 µM (inactive)	35.2 µM (inactive)	27 µM (inactive)
Nc1ccc2c(=O)cc(-c3ccc(Br)s3)[nH]c2n1	3.61 µM (inactive)	2.33 µM (inactive)	2.37 µM (inactive)	> 56.6 µM (inactive)	7.16 µM (inactive)	3.71 µM (inactive)	4.46 µM (inactive)	4.69 µM (inactive)	3.02 µM (inactive)	11.7 µM (inactive)	2.64 µM (inactive)	3.39 µM (inactive)	4.16 µM (inactive)	16.8 µM (inactive)	0.673 µM (active)	2.22 µM (inactive)	3.52 µM (inactive)	3.18 µM (inactive)	2.15 µM (inactive)	–
CC1C(c2ccccc2)O[B-](F)(c2ccccc2)[NH+]1C (stereo not drawn)	> 100 µM (inactive)	> 100 µM (inactive)	> 100 µM (inactive)	> 100 µM (inactive)	> 100 µM (inactive)	–	–	> 100 µM (inactive)	> 100 µM (inactive)	> 100 µM (inactive)	> 100 µM (inactive)	> 100 µM (inactive)	> 100 µM (inactive)	> 100 µM (inactive)	–	> 100 µM (inactive)	> 100 µM (inactive)	> 100 µM (inactive)	> 100 µM (inactive)	> 100 µM (inactive)
Nc1nc(N)c2cc(S(=O)(=O)c3ccc4ccccc4c3)ccc2n1	3.24 µM (inactive)	–	–	–	2.74 µM (inactive)	–	4.83 µM (inactive)	0.766 µM (active)	2.57 µM (inactive)	> 100 µM (inactive)	2.04 µM (inactive)	> 100 µM (inactive)	0.573 µM (active)	1.62 µM (inactive)	9.95 µM (inactive)	4.27 µM (inactive)	1.34 µM (inactive)	> 100 µM (inactive)	–	11.7 µM (inactive)
O=C1Cc2c([nH]c3ccc(Br)cc23)-c2cc(Br)ccc2N1	> 100 µM (inactive)	86.3 µM (inactive)	> 100 µM (inactive)	> 100 µM (inactive)	> 100 µM (inactive)	–	> 100 µM (inactive)	> 100 µM (inactive)	> 100 µM (inactive)	> 100 µM (inactive)	> 100 µM (inactive)	> 100 µM (inactive)	> 100 µM (inactive)	> 100 µM (inactive)	> 100 µM (inactive)	> 100 µM (inactive)	> 100 µM (inactive)	–	> 100 µM (inactive)	> 100 µM (inactive)
